Measured values as given in patent US12077503B2, “Substituted cyclic amides and their use as herbicides” (FMC CORPORATION, priority 2015, dated 2024).

Tests used:
Type in all cases: in vivo
[1] = system: giant foxtail (Setaria faberi); assay: Test G Pre-Emergence Protocol; details: Setaria faberi, pre-emergence, 312 h, evaluated after 13 days; for pest or weed control at 15.625 g/ha: 15.625 g ai/ha; for pest or weed control at 15.625 g/ha / pest or weed control at 250 g/ha: read-out: Foxtail, Giant damage rating (100=total damage to plant; 0=no damage to plant); for pest or weed control at 62.5 g/ha: 62.5 g ai/ha, 100=total damage to plant, 0=no damage to plant, read-out: plant damage rating, Foxtail, Giant; for pest or weed control at 250 g/ha: 250 g ai/ha
Protocol: (§1) Seeds of corn (Zea mays), giant foxtail (Setaria faberi), barnyardgrass (Echinochloa crus-galli), ivy-leaved morning glory (Ipomoea hederacea), redroot pigweed (Amaranthus retroflexus) and velvetleaf (Abutilon theophrasti) were sown in standard soil in pots. After cultivation for one day under controlled conditions in a glasshouse (at 24/16° C., day/night; 14 hours light; 65% humidity), the plants were sprayed with an aqueous spray solution derived from the formulation of the technical active ingredient in acetone/water (50:50) solution containing 0.5% Tween 20 (polyoxyethylene sorbitan monolaurate, CAS RN 9005-64-5) to give a final dose of 15.625, 62.5 or 250 g/ha of test compound.
(§2) The test plants were then grown on under controlled conditions in a glasshouse (at 24/16° C., day/night; 14 hours light; 65% humidity) and watered twice daily. After 13 days the test was evaluated (100=total damage to plant; 0=no damage to plant). A dash (-) means no test result.

[2] = system: ivy-leaved morning glory (Ipomoea hederacea); assay: Test G Pre-Emergence Protocol; details: Ipomoea, pre-emergence, 312 h, evaluated after 13 days; for pest or weed control at 15.625 g/ha: 15.625 g ai/ha, read-out: Morning-glory, Ivy-leaved damage rating (100=total damage to plant; 0=no damage to plant); for pest or weed control at 62.5 g/ha: 62.5 g ai/ha, 100=total damage to plant, 0=no damage to plant, read-out: plant damage rating, Morningglory, Ivy-leaved; for pest or weed control at 250 g/ha: 250 g ai/ha, read-out: Morningglory, Ivy-leaved damage rating (100=total damage to plant; 0=no damage to plant)
Protocol: as §1, §2

[3] = system: velvetleaf (Abutilon theophrasti); assay: Test G Pre-Emergence Protocol; details: Abutilon theophrasti, pre-emergence, 312 h, evaluated after 13 days; for pest or weed control at 15.625 g/ha: 15.625 g ai/ha; for pest or weed control at 15.625 g/ha / pest or weed control at 250 g/ha: read-out: Velvetleaf damage rating (100=total damage to plant; 0=no damage to plant); for pest or weed control at 62.5 g/ha: 62.5 g ai/ha, 100=total damage to plant, 0=no damage to plant, read-out: plant damage rating, Velvetleaf; for pest or weed control at 250 g/ha: 250 g ai/ha
Protocol: as §1, §2

[4] = system: redroot pigweed (Amaranthus retroflexus); assay: Test G Pre-Emergence Protocol; details: Amaranthus retroflexus, pre-emergence, 312 h, evaluated after 13 days; for pest or weed control at 15.625 g/ha: 15.625 g ai/ha; for pest or weed control at 15.625 g/ha / pest or weed control at 250 g/ha: read-out: Pigweed, Redroot damage rating (100=total damage to plant; 0=no damage to plant); for pest or weed control at 62.5 g/ha: 62.5 g ai/ha, 100=total damage to plant, 0=no damage to plant, read-out: plant damage rating, Pigweed, Redroot; for pest or weed control at 250 g/ha: 250 g ai/ha
Protocol: as §1, §2

[5] = system: ducksalad (Heteranthera limosa); assay: Test C flooded paddy test; details: Flood; for Plant response rating, Ducksalad: scale 0 to 100 (0 no effect, 100 complete control), 13 to 15 d; for Plant response rating (scale of 0 to 100), Ducksalad: 0 is no effect, 100 is complete control
Method in brief: (§3)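 Visual 0–100 injury rating versus controls (0 = no effect, 100 = complete control) at 13 to 15 d. 2-leaf-stage plants; pots flooded 3 cm over soil surface, test compound added to paddy water; greenhouse.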

[6] = system: barnyardgrass (Echinochloa crus-galli); assay: Test C flooded paddy test; details: Flood; for Plant response rating, Barnyardgrass: scale 0 to 100 (0 no effect, 100 complete control), 13 to 15 d; for Plant response rating (scale of 0 to 100), Barnyardgrass: 0 is no effect, 100 is complete control
Method in brief: as §3

rice (Oryza sativa) = assay: Test C flooded paddy test; details: Flood; for Plant response rating, Rice: scale 0 to 100 (0 no effect, 100 complete control), 13 to 15 d; for Plant response rating (scale of 0 to 100), Rice: 0 is no effect, 100 is complete control
Method in brief: as §3

[7] = system: green foxtail (Setaria viridis); assay: Test A preemergence; details: for Foxtail, Green plant response rating: 31 g ai/ha, 0 to 100 scale where 0 is no effect and 100 is complete control; for Plant response rating, Foxtail, Green: 125 g ai/ha, 0 to 100 scale (0 no effect, 100 complete control)
Method in brief: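 Ratings of 0 (no effect) to 100 (complete control) come from visual comparison with untreated controls roughly 10 d after treatment. Test chemicals, formulated in a non-phytotoxic solvent mixture with surfactant, were applied either as a preemergence directed soil spray on seeded soil or postemergence to one- to two-leaf plants 2 to 10 cm tall.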

[8] = system: redstem (purple redstem, Ammannia coccinea); assay: Test F flooded paddy test; details: Flood
Excerpt: (§4) Plant species in the flooded paddy test consisted of one stand of 9 or 10 water seeded rice seedlings (Rice, W. S. Jap, Oryza sativa cv. ‘Japonica—M202’ or Rice, W. S. Ind, ‘Indica’), and two stands of 3 or 4 transplanted rice seedlings (Oryza sativa cv. ‘Japonica—M202’), Monochoria (Monochoria vaginalis), sedge, umbrella (small-flower umbrella sedge, Cyperus difformis), hardstem bulrush (Scirpus juncoides), redstem (purple redstem, Ammannia coccinea), rice flatsedge (Cyperus iria), bearded sprangletop (Leptochloa fascicularis), barnyardgrass (Echinochloa crus-galli), waterplantain (common waterplantain, Alisma plantago-aquatica), and late watergrass (Echinochloa oryzicola) grown to the 2 to 2.5 leaf stage for testing. Potted plants were grown in a greenhouse with day/night temperature settings of 30/27° C., and supplemental balanced lighting was provided to maintain a 16-hour photoperiod. At time of treatment, test pots were flooded to 3 cm above the soil surface, treated by application of test compounds directly to the paddy water, and then maintained at that water depth for the duration of the test. Effects of treatments on rice and weeds were visually evaluated by comparison to untreated controls after 21 d. Plant response ratings, summarized in Table F, are based on a scale of 0 to 100 where 0 is no effect and 100 is complete control. A dash (-) response means no test result.

[9] = system: waterplantain (common waterplantain, Alisma plantago-aquatica); assay: Test F flooded paddy test; details: Flood
Excerpt: as §4

## CN1C[C@H](c2ccc(C(F)(F)F)cc2)[C@@H](C(=O)Nc2cccnc2F)C1=O [Compound 1396]
[1]
  pest or weed control at 15.625 g/ha: 90%
  pest or weed control at 62.5 g/ha: 90%
  pest or weed control at 250 g/ha: 100%
[2]
  pest or weed control at 15.625 g/ha: 0%
  pest or weed control at 62.5 g/ha: 70%
  pest or weed control at 250 g/ha: 70%
[3]
  pest or weed control at 15.625 g/ha: 40%
  pest or weed control at 62.5 g/ha: 70%
  pest or weed control at 250 g/ha: 80%
[4]
  pest or weed control at 15.625 g/ha: 80%
  pest or weed control at 62.5 g/ha: 80%
  pest or weed control at 250 g/ha: 80%

## CN1CC(c2cc(F)cc(F)c2)C(C(=O)Nc2cccc(F)c2F)C1=O (centres unmarked) [Compound 644]
[5]; 31 g ai/ha
  Plant response rating, Ducksalad: 55
[5]; 62 g ai/ha
  Plant response rating (scale of 0 to 100), Ducksalad: 65
[5]; 125 g ai/ha
  Plant response rating (scale of 0 to 100), Ducksalad: 100
[5]; 250 g ai/ha
  Plant response rating (scale of 0 to 100), Ducksalad: 100
[6]; 31 g ai/ha
  Plant response rating, Barnyardgrass: 40
[6]; 62 g ai/ha
  Plant response rating (scale of 0 to 100), Barnyardgrass: 60
[6]; 125 g ai/ha
  Plant response rating (scale of 0 to 100), Barnyardgrass: 75
[6]; 250 g ai/ha
  Plant response rating (scale of 0 to 100), Barnyardgrass: 90
Rice (Oryza sativa); 31 g ai/ha
  Plant response rating, Rice: 0
Rice (Oryza sativa); 62 g ai/ha
  Plant response rating (scale of 0 to 100), Rice: 0
Rice (Oryza sativa); 125 g ai/ha
  Plant response rating (scale of 0 to 100), Rice: 0
Rice (Oryza sativa); 250 g ai/ha
  Plant response rating (scale of 0 to 100), Rice: 0

## CN1C[C@H](c2csc3c2CCC(F)(F)C3)[C@@H](C(=O)Nc2cccc(F)c2F)C1=O (racemic) [Compound 1369]
[7]
  Foxtail, Green plant response rating: 20
  Plant response rating, Foxtail, Green: 100

## CN1C[C@H](c2ccc(Cl)cc2)[C@@H](C(=O)Nc2cccc(F)n2)C1=O [Compound 1399]
[1]
  pest or weed control at 15.625 g/ha: 90%
  pest or weed control at 62.5 g/ha: 90%
  pest or weed control at 250 g/ha: 90%
[2]
  pest or weed control at 15.625 g/ha: 0%
  pest or weed control at 62.5 g/ha: 50%
  pest or weed control at 250 g/ha: 60%
[3]
  pest or weed control at 15.625 g/ha: 0%
  pest or weed control at 62.5 g/ha: 40%
  pest or weed control at 250 g/ha: 70%
[4]
  pest or weed control at 15.625 g/ha: 0%
  pest or weed control at 62.5 g/ha: 30%
  pest or weed control at 250 g/ha: 80%

## CN1C[C@H](c2csc3c2CCC(F)(F)C3)[C@@H](C(=O)Nc2ccc(F)c(F)c2F)C1=O (racemic) [Compound 1368]
[7]
  Foxtail, Green plant response rating: 0
  Plant response rating, Foxtail, Green: 100

## CN1CC(c2cccc(OC(F)F)c2)C(C(=O)Nc2ccc(F)cc2F)C1=O (centres unmarked) [Compound 617]
[8]; 32 g ai/ha
  Plant response rating: Redstem: 0
[8]; 64 g ai/ha
  Plant response rating: Redstem: 0
[8]; 125 g ai/ha
  Plant response rating: Redstem: 0
[8]; 250 g ai/ha
  Plant response rating: Redstem: 0
[9]; 32 g ai/ha
  Plant response rating: Waterplantain: 0
[9]; 64 g ai/ha
  Plant response rating: Waterplantain: 75
[9]; 125 g ai/ha
  Plant response rating: Waterplantain: 85
[9]; 250 g ai/ha
  Plant response rating: Waterplantain: 90

## Cc1ccc(C2CN(C)C(=O)C2C(=O)Nc2ccccc2F)cc1F (centres unmarked) [Compound 465]
[5]; 16 g ai/ha
  Plant response rating, Ducksalad: 0
[5]; 31 g ai/ha
  Plant response rating (scale of 0 to 100), Ducksalad: 45
[5]; 62 g ai/ha
  Plant response rating (scale of 0 to 100), Ducksalad: 65
[5]; 125 g ai/ha
  Plant response rating (scale of 0 to 100), Ducksalad: 90
[6]; 16 g ai/ha
  Plant response rating, Barnyardgrass: 0
[6]; 31 g ai/ha
  Plant response rating (scale of 0 to 100), Barnyardgrass: 25
[6]; 62 g ai/ha
  Plant response rating (scale of 0 to 100), Barnyardgrass: 45
[6]; 125 g ai/ha
  Plant response rating (scale of 0 to 100), Barnyardgrass: 70
Rice (Oryza sativa); 16 g ai/ha
  Plant response rating, Rice: 0
Rice (Oryza sativa); 31 g ai/ha
  Plant response rating (scale of 0 to 100), Rice: 0
Rice (Oryza sativa); 62 g ai/ha
  Plant response rating (scale of 0 to 100), Rice: 0
Rice (Oryza sativa); 125 g ai/ha
  Plant response rating (scale of 0 to 100), Rice: 0
[8]; 32 g ai/ha
  Plant response rating: Redstem: 0
[8]; 64 g ai/ha
  Plant response rating: Redstem: 0
[8]; 125 g ai/ha
  Plant response rating: Redstem: 0
[8]; 250 g ai/ha
  Plant response rating: Redstem: 45
[9]; 32 g ai/ha
  Plant response rating: Waterplantain: 0
[9]; 64 g ai/ha
  Plant response rating: Waterplantain: 40
[9]; 125 g ai/ha
  Plant response rating: Waterplantain: 90
[9]; 250 g ai/ha
  Plant response rating: Waterplantain: 100

## CN1CC(c2ccc(F)c(C(F)(F)F)c2)C(C(=O)Nc2ccccc2S(C)(=O)=O)C1=O (centres unmarked) [Compound 612]
[5]; 31 g ai/ha
  Plant response rating (scale of 0 to 100), Ducksalad: 0
[5]; 62 g ai/ha
  Plant response rating (scale of 0 to 100), Ducksalad: 0
[5]; 125 g ai/ha
  Plant response rating (scale of 0 to 100), Ducksalad: 0
[5]; 250 g ai/ha
  Plant response rating (scale of 0 to 100), Ducksalad: 55
[6]; 31 g ai/ha
  Plant response rating (scale of 0 to 100), Barnyardgrass: 0
[6]; 62 g ai/ha
  Plant response rating (scale of 0 to 100), Barnyardgrass: 0
[6]; 125 g ai/ha
  Plant response rating (scale of 0 to 100), Barnyardgrass: 0
[6]; 250 g ai/ha
  Plant response rating (scale of 0 to 100), Barnyardgrass: 55
Rice (Oryza sativa); 31 g ai/ha
  Plant response rating (scale of 0 to 100), Rice: 0
Rice (Oryza sativa); 62 g ai/ha
  Plant response rating (scale of 0 to 100), Rice: 0
Rice (Oryza sativa); 125 g ai/ha
  Plant response rating (scale of 0 to 100), Rice: 0
Rice (Oryza sativa); 250 g ai/ha
  Plant response rating (scale of 0 to 100), Rice: 15
